Experimental data from article PMC9406419, “OATD-02 Validates the Benefits of Pharmacological Inhibition of Arginase 1 and 2 in Cancer” (Cancers, 2022).

Assays:
[1] = target: intracellular arginase in human primary hepatocytes; test: Liver arginase inhibition assay in human primary hepatocytes (urea in supernatant); format: cell-based; details: 24 h incubation, 5 mM L-arginine
recombinant human ARG2 = target: T1, recombinant human ARG2 (Homo sapiens, UniProt P78540); test: Recombinant arginase inhibition assay (colorimetric urea detection), ARG2; format: biochemical; details: recombinant human ARG2, 20 mM L-arginine, 37 °C, 1 h, pH 7.4
T1 construct: made in house; host or cells: E. coli
T1 sequence (P78540 23-354): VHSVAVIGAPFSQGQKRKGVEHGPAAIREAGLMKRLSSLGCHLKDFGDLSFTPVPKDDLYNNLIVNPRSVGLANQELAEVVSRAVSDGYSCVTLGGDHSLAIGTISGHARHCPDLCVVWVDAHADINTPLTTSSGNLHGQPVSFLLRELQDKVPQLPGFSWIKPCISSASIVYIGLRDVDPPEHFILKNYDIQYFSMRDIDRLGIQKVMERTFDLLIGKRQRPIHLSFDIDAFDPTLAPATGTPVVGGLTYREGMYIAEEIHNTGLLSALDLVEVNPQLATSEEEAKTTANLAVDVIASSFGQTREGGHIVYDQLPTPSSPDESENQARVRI
Procedure: Recombinant enzymes (ARG1 or ARG2) were produced at Molecure SA—biosynthesized in E. coli expression system, purified by fast protein liquid chromatography, and stored at −80 °C in the storage buffer (20 mM Tris pH 8.0, 100 mM NaCl, 10 mM DDT, 10% glycerol). The enzymatic reaction was carried out at 37 °C for 1 h in the assay buffer (100 mM sodium phosphate buffer, 130 mM NaCl, pH 7.4) with the addition of 1 mg/mL BSA in the presence of 200 µM MnCl2 (enzyme cofactor), 10 mM (for ARG1) or 20 mM (for ARG2) of L-arginine hydrochloride (enzyme substrate), and serial dilutions of the test compounds. The inhibition of the arginase activity was determined by colorimetric detection of produced urea, as previously described with minor changes. Briefly, 150 µL of freshly prepared developing reagent (2 mM o-phthaldialdehyde (OPA), 2 mM N-(1-naphthyl)ethylenediamine dihydrochloride (NED), 50 mM boric acid, 1 M sulfuric acid, 0.03% Brij-35) was added to each well, incubated for 20 min at RT, then the absorbance at 515 nm was measured. Normalized values were fitted to a four-parameter equation using GraphPad Prism and IC50 values were determined. […]

Renca tumours = test: Syngeneic Renca renal adenocarcinoma model with plasma L-arginine and tumour flow cytometry; format: in vivo, mouse
Procedure: CT26 and K562 in vivo experiments were conducted at Molecure SA. All experimental procedures were approved by the 1st Local Ethics Committee in Warsaw (Poland). For the syngeneic CT26 model, 7–8-week old BALB/c females (n = 9–18 per group, BALB/cAnNCrl, Charles River Laboratories) were injected subcutaneously in the right flank with 5 × 10^5 CT26 cells. […] Anti-PD-L1 antibody (InVivoPlus anti-mouse PD-L1, clone 10F.9G2, BioXCell, lot 615416D1) was injected intraperitoneally at 2.5 mg/kg on days: 8, 10, 12, 14 and 16 post tumour cells inoculation. Control groups received vehicle (saline) or isotype antibody (InVivoPlus rat IgG2b, anti-KLH, BioXCell, lot 629816D1). For the xenograft K562 model, 7–8 week-old athymic nude mice (n = 8–11 per group, Crl:NU(NCr)-Foxn1^nu, Charles River Laboratories) or NK cell-deficient Fox Chase SCID Beige mice (n = 10–12 per group, CB17.Cg-Prkdc^scidLyst^bg-J/Crl, Charles River Laboratories) were injected subcutaneously in the right flank with 1 × 10^7 K562 cells. […] Tumour volume measured by a digital calliper (width × length × depth × π/6) was recorded three times per week. Animals were euthanized when tumours were necrotized or volume exceeded 2000 mm^3. Renca in vivo efficacy study was performed at Crown Biosciences Inc. (Taicang, China). All experimental procedures on animals were approved by the Institutional Animal Care and Use Committee (IACUC) and conducted in accordance with the regulations of the Association for Assessment and Accreditation of Laboratory Animal Care (AAALAC). For the syngeneic Renca model, 6–7 week-old BALB/c females (n = 12 per group, Shanghai Lingchang Biotechnology, Shanghai, China) were injected subcutaneously in the right flank with 1 × 10^6 Renca cells. Tumour volumes (length × width^2 × 0.5) were measured twice per week. OATD-02 was dosed twice per day at 75 mg/kg by oral gavage. A dosing holiday was given to individuals with bodyweight loss exceeding 15% of the initial body weight and the treatment was resumed when the bodyweight loss recovered to less than 10%. Due to the cachexic nature of the Renca model, all animals were supplemented with DietGel to help maintain their body weight.
Dissected tumours were dissociated to obtain single-cell suspensions for antibody staining and immune cell assessment. Prior to the antibody staining, dead cells were labelled with the Fixable Viability Due eFluor™ 780 (eBiosciences, San Diego, CA, USA). The following anti-mouse antibodies were used for flow cytometry: anti-CD45-FITC (clone 30-F11, Biolegend, San Diego, CA, USA), anti-CD3-BUV395 (clone 145-2C11, BD), anti-CD4-BV421 (clone GK1.5, Biolegend), anti-CD8-PE-eFluor610 (clone 53-6.7, eBiosciences), anti-Foxp3-PE (clone FJK-16S, eBiosciences), anti-CD11b-PE-Cy7 (clone M1/70, Biolegend), anti-F4/80-BV510 (clone BM8, Biolegend), and anti-Gr1-APC (clone RB6-8C5, Biolegend).
The concentrations of OATD-02, the reference ARGi or L-arginine were determined in plasma samples or tumour homogenates using liquid chromatography coupled with tandem mass spectrometry (LC-MS/MS). Sample preparation was based on protein precipitation using acetonitrile. The resulting supernatants were analysed using hydrophilic interaction liquid chromatography (HILIC) with subsequent MS detection based on optimised MRM transitions. Matrix-matched calibration and quality control samples were prepared for quantification of OATD-02 and the reference ARGi. Due to the endogenous character of L-arginine, a surrogate matrix was used for its detection.
All statistical analyses were performed using GraphPad Prism (ver. 9, GraphPad Software, Inc., San Diego, CA, USA). Data sets with normal distribution were described as means with SEM (standard error of the mean). Otherwise, the median value was shown and the U Mann–Whitney or the Kruskal–Wallis tests were applied for intergroup comparisons. Differences at p-value less than 0.05 were considered statistically significant. […]

| Structure (SMILES) | IC50 [1] | IC50 (recombinant human ARG2) | TGI, syngeneic Renca model (Renca tumours; 75 mg/kg PO BID from day 1, day 22 post-inoculation, not statistically significant) | levels of Tregs in the tumour microenvironment (Renca tumours; Renca tumours, flow cytometry, Foxp3+ within CD4+ T cells, p = 0.0196) | levels of MDSCs in the tumour microenvironment (Renca tumours; Renca tumours, flow cytometry, p = 0.0173) | CD8+/Treg cell ratio (Renca tumours; Renca tumours, flow cytometry, p = 0.0281) | levels of neutrophils in the tumour microenvironment (Renca tumours; Renca tumours, flow cytometry, p = 0.0284) | fold increase in plasma L-arginine (Renca tumours; Renca-bearing mice, 75 mg/kg PO BID, 16 h upon last dose) | IC50 ([1]; Hepatocyte) |
| --- | --- | --- | --- | --- | --- | --- | --- | --- | --- |
| CN(C)C[C@@H]1CC[C@@H](CCB(O)O)C[C@]1(N)C(=O)O [OATD-02] | 14.2 µM | 0.034 µM | 31% | decreased levels | decreased levels | beneficial increase | decreased levels | 6.6 fold |  |
| C[C@H](N)C(=O)N1C[C@H](CCCB(O)O)[C@](N)(C(=O)O)C1 [ref. ARGi, numidargistat, reference compound] |  | 0.335 µM |  |  |  |  |  |  | 50.1 µM |
